In patent US9474790B2, “Stable, protracted GLP-1/glucagon receptor co-agonists for medical use” (Novo Nordisk A/S, priority 2013, dated 2016):
Numbered stars: 1 amine (or outer) side, 2 acyl side, 3 side chain; on linkers, the order of the positions; unused ones are H or OH. Square brackets hold non-standard residues; d marks the D form. Side chains are listed from the residue outwards. Peptide text beside a SMILES is read from it. * marks the point of attachment. C18 diacid = O=C(O)CCCCCCCCCCCCCCCCC(=O)*; γGlu = O=C(O)[C@H](CCC(=O)[*:2])N[*:1]; AEEA = NCCOCCOCC(=O)O; Aib = CC(C)(N)C(=O)O

What was measured:
human GLP-1 receptor [1] = biological target: T1, human GLP-1 receptor (Homo sapiens, UniProt P43220); experiment: GLP-1 receptor potency, CRE luciferase reporter gene assay in BHK cells; type: cell-based; settings: BHK cells expressing human GLP-1 receptor, read-out: EC50 GLP-1R
T1 construct: expressed in transfected cells; host or cells: BHK cells (parent BHKTS13), clone FCW467-12A/KZ10-1, with CRE luciferase
T1 sequence (P43220 24-463): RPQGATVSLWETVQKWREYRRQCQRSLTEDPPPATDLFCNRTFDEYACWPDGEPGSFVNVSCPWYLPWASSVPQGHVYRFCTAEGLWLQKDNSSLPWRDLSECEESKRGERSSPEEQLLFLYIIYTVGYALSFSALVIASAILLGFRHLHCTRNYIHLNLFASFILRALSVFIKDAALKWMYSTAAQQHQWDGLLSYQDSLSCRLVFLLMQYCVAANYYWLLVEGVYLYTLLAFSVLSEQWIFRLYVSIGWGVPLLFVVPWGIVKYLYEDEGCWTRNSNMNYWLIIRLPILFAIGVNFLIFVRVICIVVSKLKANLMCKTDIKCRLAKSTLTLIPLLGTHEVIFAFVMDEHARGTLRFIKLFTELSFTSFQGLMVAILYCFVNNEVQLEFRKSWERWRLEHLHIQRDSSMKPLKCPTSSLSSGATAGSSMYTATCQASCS
Experimental: The purpose of this example was to test the potency, of the glucagon derivatives of the invention, in vitro. The in vitro potency is the measure of human GLP-1 receptor or glucagon receptor activation, respectively, in a whole cell assay.
In vitro potency was determined by measuring the response of human GLP-1 or glucagon receptor, respectively, in a reporter gene assay. The assay was performed in a stably transfected BHK cell line that expresses either the human GLP-1 receptor or the human glucagon receptor and contains the DNA for the cAMP response element (CRE) coupled to a promoter and the gene for firefly luciferase (CRE luciferase). […] When assay incubation was completed, the luciferase substrate (luciferin) was added and the enzyme converted luciferin to oxyluciferin and produces bioluminescence. The luminescence was measured as the readout for the assay.
The cells used in this assay (clone FCW467-12A/KZ10-1) were BHK cells with BHKTS13 as a parent cell line. The cells were derived from a clone (FCW467-12A) that expresses the human GLP-1 receptor and were established by further transfection with
CRE luciferase to obtain the current clone.
The cells were cultured at 5% CO2 in DMEM medium with 10% FBS, 1×GlutaMAX, 1 mg/ml G418, 240 nM MTX (methotrexate) and 1% pen/strep (penicillin/streptomycin). They were aliquoted and stored in liquid nitrogen. Before each assay, an aliquot was taken up and washed three times in PBS before being suspended at the desired concentration in assay medium. For 96-well plates the suspension was made to give a final concentration of 5×10EE3 cells/well.
The following chemicals were used in the assay: Pluronic F-68 (10%) (Gibco 2404), ovalbumin (Sigma A5503), DMEM w/o phenol red (Gibco 11880-028), 1 M Hepes (Gibco 15630), Glutamax 100× (Gibco 35050) and steadylite plus (PerkinElmer 6016757).
Assay Medium consisted of DMEM w/o phenol red, 10 mM Hepes, lx GlutaMAX, 2% Ovalbumin and 0.2% Pluronic F-68.
Cell stocks were thawed in a 37° C. water bath. Cells were washed three times in PBS. The cells were counted and adjusted to 5×10EE3 cells/50 μl (1×10EE5 cells/ml) in Assay Medium. A 50 μl aliquot of cells was transferred to each well in the assay plate.
Stocks of the test compounds and reference compounds were diluted to a concentration of […] in Assay Medium. Compounds were diluted 10-fold to give the following concentrations: 2×10EE-6 M, 2×10EE-7 M, 2×10EE-8 M; 2×10EE-9 M, 2×10EE-10 M, 2×10EE-11 M, 2×10EE-12 M and 2×10EE-13 M. For each compound a blank assay medium control was also included.
A 50 μl aliquot of compound or blank was transferred from the dilution plate to the assay plate. Compounds were tested at the following final concentrations: 1×10EE-6 M, 1×10EE-7 M, 1×10EE-8 M; 1×10EE-9 M, 1×10EE-10 M, 1×10EE-11 M and 1×10EE-12 M and 1×10EE-13 M.
The assay plate was incubated for 3 h in a 5% CO2 incubator at 37° C. The assay plate was removed from the incubator and allowed to stand at room temperature for 15 min. A 100 μl aliquot of steadylite plus reagent was added to each well of the assay plate (reagent is light sensitive). Each assay plate was covered with aluminum foil to protect it from light and shaken for 30 min at room temperature. Each assay plate was read in a Perkin Elmer TopCount NXT instrument.
The data from the TopCount instrument was transferred to GraphPad Prism software. The software performed a non-linear regression (log(agonist) vs response-Variable slope (four parameter)). EC50 values were calculated by the software and reported in pM.

human GLP-1 receptor [2] = biological target: T1, human GLP-1 receptor; experiment: GLP-1 receptor binding, 125I-GLP-1 displacement SPA on isolated membranes; settings: displacement of 125I-GLP-1 from membranes; read-out: IC50 GLP-1R
Experimental: The purpose of this assay was to test the in vitro receptor binding activity of the glucagon derivatives of the invention. The receptor binding is a measure of affinity of a compound for the human GLP-1 receptor.
The receptor binding of each compound to the human GLP-1 receptor was measured in a displacement binding assay. In this type of assay a labelled ligand (in this case 125I-GLP-1) is bound to the receptor. Each derivative was added in a series of concentrations to isolated membranes containing the human GLP-1 receptor and displacement of the labelled ligand was monitored. The receptor binding was reported as the concentration at which half of the labelled ligand was displaced from the receptor, the IC50 value.
In order to test the binding of the derivatives to albumin, the assay may be performed in a very low concentration of serum albumin (max. 0.001% final assay concentration) as well as in the presence of a higher concentration of serum albumin (2.0% final assay concentration). An increase of the IC50 value, in the presence of serum albumin indicates an affinity to serum albumin and represents a method to predict a protracted pharmacokinetic profile of the test substance in animal models.
The following chemicals were used in the assay: DMEM w/o phenol red (Gibco 11880-028), Pen/strep (Invitrogen 15140-122), G418 (Invitrogen 10131-027), 1 M Hepes (Gibco 15630), EDTA (Invitrogen 15575-038), PBS (Invitrogen 14190-094), fetal calf serum (Invitrogen 16140-071), EGTA, MgCl2 (Merck 1.05832.1000), Tween 20 (Amresco 0850C335), SPA particles (wheat germ agglutinin (WGA) SPA beads, Perkin Elmer RPNQ0001), [125I]-GLP-1]-(7-36)NH2 (produced in-house), OptiPlate™-96 (Perkin Elmer).
Buffer 1 consisted of 20 mM Na-HEPES plus 10 mM EDTA and pH was adjusted to 7.4.
Buffer 2 consisted of 20 mM Na-HEPES plus 0.1 mM EDTA and pH was adjusted to 7.4.
Assay buffer consisted of 50 mM HEPES supplemented with 5 mM EGTA, 5 mM MgCl2, 0.005% Tween 20 and pH was adjusted to 7.4.
The cells used in this assay (clone FCW467-12A) were BHK cells with BHKTS13 as a parent cell line. The cells express the human GLP-1 receptor.
The cells were grown at 5% CO2 in DMEM, 10% fetal calf serum, 1% Pen/Strep (Penicillin/Streptomycin) and 1.0 mg/ml of the selection marker G418. To make a membrane preparation the cells were grown to approximately 80% confluence. The cells were washed twice in phosphate-buffered saline and harvested. The cells were pelleted using a brief centrifugation and the cell pellet was kept on ice. The cell pellet was homogenised with ULTRA-THURRAX dispersing instrument for 20-30 sec in a suitable amount of buffer 1 (e.g. 10 ml). The homogenate was centrifuged for 15 min. The pellet was re-suspended (homogenised) in 10 ml buffer 2 and centrifuged. This step was repeated once more. The resulting pellet was re-suspended in buffer 2 and the protein concentration was determined. The membranes were aliquoted and stored at minus 80° C.
1. For the receptor binding assay, 50 μl of the assay buffer was added to each well of an assay plate.
2. Test compounds were serially diluted to give the following concentrations: 8×10EE-7 M, 8×10EE-8 M, 8×10EE-9 M, 8×10EE-10 M, 8×10EE-11 M, 8×10EE-12 M and 8×10EE-13 M. Twenty-five μl were added to appropriate wells in the assay plate.
3. Cell membrane aliquots were thawed and diluted to their working concentration. Fifty μl were added to each well in the assay plate.
4. WGA SPA beads were suspended in assay buffer at 20 mg/ml. The suspension was diluted to 10 mg/ml in assay buffer just prior to addition to the assay plate. Fifty μl were added to each well in the assay plate.
5. The incubation was started by adding 25 μl of 480 pM solution of [125I]-GLP-1]-(7-36)NH2 to each well of the assay plate. A 25 μl aliquot was reserved for measuring total counts/well.
6. The assay plate was incubated for 2 h at 30° C.
7. The assay plate was centrifuged for 10 min.
8. The assay plate was read in a Perkin Elmer TopCount NXT instrument. […]

Row | SMILES | EC50 (human GLP-1 receptor [1]) | IC50 (human GLP-1 receptor [2])
1 | CC(C)C[C@H](NC(=O)[C@H](Cc1ccc(O)cc1)NC(=O)[C@H](CCCCN)NC(=O)[C@H](CO)NC(=O)[C@H](CC(C)C)NC(=O)[C@H](CC(=O)O)NC(=O)[C@H](CO)NC(=O)[C@@H](NC(=O)[C@H](Cc1ccccc1)NC(=O)[C@@H](NC(=O)CNC(=O)[C@H](CCC(N)=O)NC(=O)C(C)(C)NC(=O)[C@@H](N)Cc1c[nH]cn1)[C@@H](C)O)[C@@H](C)O)C(=O)N[C@@H](CCC(=O)O)C(=O)N[C@@H](CO)C(=O)N[C@@H](CCCNC(=N)N)C(=O)N[C@@H](CCCNC(=N)N)C(=O)N[C@@H](C)C(=O)N[C@@H](CCCNC(=N)N)C(=O)N[C@@H](CC(=O)O)C(=O)N[C@@H](Cc1ccccc1)C(=O)N[C@H](C(=O)N[C@@H](CCC(N)=O)C(=O)N[C@@H](Cc1c[nH]c2ccccc12)C(=O)N[C@@H](CC(C)C)C(=O)N[C@@H](CC(C)C)C(=O)N[C@@H](CCCCNC(=O)COCCOCCNC(=O)COCCOCCNC(=O)CC[C@H](NC(=O)CC[C@H](NC(=O)CC[C@H](NC(=O)CCCCCCCCCCCCCCCCC(=O)O)C(=O)O)C(=O)O)C(=O)O)C(=O)N[C@H](C(N)=O)[C@@H](C)O)C(C)C [Example 57, N^ε28-[2-[2-[2-[(2-[2-[2-[[(4S)-4-carboxy-4-[[(4S)-4-carboxy-4-[[(4S)-4-carboxy-4-(17-carboxyheptadecanoylamino)butanoyl]amino]butanoyl]amino]butanoyl]amino]ethoxy]ethoxy]acetyl]amino]ethoxy]ethoxy]acetyl]-[Aib2,Leu10,Glu15,Arg20,Leu27,Lys28]-Glucagon amide] (H-H[Aib]QGTFTSDLSKYLESRRARDFVQWLLK([AEEA-AEEA-γGlu-γGlu-γGlu-C18 diacid])T-NH2; N-terminus assumed) | 0.003 nM | 0.2 nM
2 | CC(C)C[C@H](NC(=O)[C@H](Cc1ccc(O)cc1)NC(=O)[C@H](CCCNC(=N)N)NC(=O)[C@H](CO)NC(=O)[C@H](CC(C)C)NC(=O)[C@H](CC(=O)O)NC(=O)[C@H](CO)NC(=O)[C@@H](NC(=O)[C@H](Cc1ccccc1)NC(=O)[C@@H](NC(=O)CNC(=O)[C@H](CCC(N)=O)NC(=O)C(C)(C)NC(=O)[C@@H](N)Cc1c[nH]cn1)[C@@H](C)O)[C@@H](C)O)C(=O)N[C@@H](CC(=O)O)C(=O)N[C@@H](C)C(=O)N[C@@H](CCCNC(=N)N)C(=O)N[C@@H](CCCNC(=N)N)C(=O)N[C@@H](C)C(=O)N[C@@H](CCC(N)=O)C(=O)N[C@@H](CC(=O)O)C(=O)N[C@@H](Cc1ccccc1)C(=O)N[C@H](C(=O)N[C@@H](CCC(N)=O)C(=O)N[C@@H](Cc1c[nH]c2ccccc12)C(=O)N[C@@H](CC(C)C)C(=O)N[C@@H](CC(C)C)C(=O)N[C@@H](CCCCNC(=O)COCCOCCNC(=O)COCCOCCNC(=O)CC[C@H](NC(=O)CC[C@H](NC(=O)CC[C@H](NC(=O)CCCCCCCCCCCCCCCCC(=O)O)C(=O)O)C(=O)O)C(=O)O)C(=O)N[C@H](C(N)=O)[C@@H](C)O)C(C)C [Example 64, N^ε28-[2-[2-[2-[[2-[2-[2-[[(4S)-4-carboxy-4-[[(4S)-4-carboxy-4-[[(4S)-4-carboxy-4-(17-carboxyheptadecanoylamino)butanoyl]amino]butanoyl]amino]butanoyl]amino]ethoxy]ethoxy]acetyl]amino]ethoxy]ethoxy]acetyl]-[Aib2,Leu10,Arg12,Ala16,Leu27,Lys28]-Glucagon amide] (H-H[Aib]QGTFTSDLSRYLDARRAQDFVQWLLK([AEEA-AEEA-γGlu-γGlu-γGlu-C18 diacid])T-NH2; N-terminus assumed) | 0.003 nM | 0.9 nM
